Experimental data as given in patent US7053046B2 (priority 2001, dated 2006).

Columns and labels:
Format in all cases: cell-based, human
[1] = system: VEGF A
[2] = system: VEGF B
[3] = system: VEGF C

Compound	VEGF A gene expression ratio treated/untreated (up) [1]	VEGF B gene expression ratio treated/untreated (up) [2]	VEGF C gene expression ratio treated/untreated (up) [3]
YGRKKRRQRRR-DLDLEMLA(Hyp)YIPMDDDFQL [ODD peptide]	up 3.2 x	up 1.4 x	up 4.4 x
[Cl-].[Cl-].[Co+2] [CoCl2]	up 3.4 x	up 1.4 x	up 3.0 x
